From patent US8765741B2, “5,6-dihydro-1H-pyridin-2-one compounds” (Anadys Pharmaceuticals, Inc., priority 2007, dated 2014)

Assays:
NS5B polymerase = NS5B polymerase (Hepatitis C virus genotype 1b, UniProt P26663); experiment: biochemical; conditions: NS5B polymerase inhibition; 20 nM enzyme, 75 min at 28° C.; read-out: IC50
HCV replicon = HCV replicon assay; type: cell-based; conditions: Hepatitis C virus; Example numbers 64 and 65 in Table 1; HCV replicon cells, 72 hours exposure; read-out: EC50 (HCV replicon inhibition)
Description: HCV Replicon Assay (Replicon EC50 (μM))
The cell culture component of the assay is performed essentially as described by Bartenschlager et al., Hepatology 2002, 35, 694-703, wherein exponentially growing HCV Huh-7/C24 replicon cells are seeded at 4.5×10^3 cells/well in 96 well plates and 24 hours later are treated with six point half-log concentration of compound. After 72 hours exposure the media is discarded from the compound assay plate and the cell monolayers are lysed by addition of 150 µL lysis mixture (Genospectra) with incubation at 53° C. for 45 minutes. Following incubation, each lysate is thoroughly mixed and 5 µl (NS3 probe) or 10 µL (GAPDH probe) of each lysate is then transferred to the capture plate and analyzed by bDNA assay.
Branched DNA (bDNA) Assay […]
After subsequent addition of the chemilumigenic substrate (dioxetan), each plate is read by luminometer (Wallac 1420 Multilabel HTS Counter Victor 2). The luminescence signal is proportional to the amount of mRNA present in each lysate. In addition to the samples, cell lysate only (no probe) background controls are also included on each bDNA assay plate and the average signal from these control wells is subtracted from the sample reading prior to analysis. Percent of no drug control is determined for both the NS3 and GAPDH signals for each compound also. […]

Sequence of NS5B polymerase (P26663 2420-3010): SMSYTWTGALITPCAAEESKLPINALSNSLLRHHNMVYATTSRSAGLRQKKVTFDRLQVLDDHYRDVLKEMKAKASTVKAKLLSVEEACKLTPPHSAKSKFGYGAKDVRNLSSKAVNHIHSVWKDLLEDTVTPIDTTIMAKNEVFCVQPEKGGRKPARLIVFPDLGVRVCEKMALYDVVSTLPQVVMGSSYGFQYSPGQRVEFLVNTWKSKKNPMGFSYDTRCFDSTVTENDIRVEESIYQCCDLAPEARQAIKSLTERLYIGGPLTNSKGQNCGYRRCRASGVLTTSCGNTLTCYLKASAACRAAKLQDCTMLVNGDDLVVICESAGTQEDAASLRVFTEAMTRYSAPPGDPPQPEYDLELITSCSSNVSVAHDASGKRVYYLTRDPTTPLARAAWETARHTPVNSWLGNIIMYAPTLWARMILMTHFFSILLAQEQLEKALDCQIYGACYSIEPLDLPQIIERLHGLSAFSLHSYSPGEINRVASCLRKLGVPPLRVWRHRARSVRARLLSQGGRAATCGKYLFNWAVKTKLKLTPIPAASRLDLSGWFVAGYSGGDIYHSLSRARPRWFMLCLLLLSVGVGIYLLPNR

| melting point | IC50 (NS5B polymerase) | SMILES | EC50 (HCV replicon) |
| --- | --- | --- | --- |
| 203.8 to 205.7 °C | < 20 nM | CS(=O)(=O)Nc1ccc2c(c1)S(=O)(=O)N=C(C1=C(O)[C@@H]3C4CCC(CC4)[C@@H]3N(Cc3ccc(F)cc3)C1=O)N2 [Example 49, N-{3-[(2S,7R)-3-(4-Fluoro-benzyl)-6-hydroxy-4-oxo-3-aza-tricyclo[6.2.2.0^2,7]dodec-5-en-5-yl]-1,1-dioxo-1,4-dihydro-1λ^6-benzo[1,2,4]thiadiazin-7-yl}-methanesulfonamide] |  |
| 203.8 to 205.7 °C | < 20 nM | CS(=O)(=O)Nc1ccc2c(c1)S(=O)(=O)N=C(C1=C(O)[C@@H]3[C@H]4CC[C@H](CC4)[C@@H]3N(Cc3ccc(F)cc3)C1=O)N2 (relative stereo) [Example 50, cis-N-{3-[3-(4-Fluoro-benzyl)-6-hydroxy-4-oxo-3-aza-tricyclo[6.2.2.0^2,7]dodec-5-en-5-yl]-1,1-dioxo-1,4-dihydro-1λ^6-benzo[1,2,4]thiadiazin-7-yl}-methanesulfonamide] |  |
|  | 20 to 100 nM | CC(C)(C)CCN1C(=O)C(C2=NS(=O)(=O)c3cc(NS(C)(=O)=O)ccc3N2)=C(O)C2C3CCC(O3)C21 (racemic) [Example 13, (rac-di-exo)-N-{3-[3-(3,3-Dimethyl-butyl)-6-hydroxy-4-oxo-11-oxa-3-aza-tricyclo[6.2.1.0^2,7]undec-5-en-5-yl]-1,1-dioxo-1,4-dihydro-1λ^6-benzo[1,2,4]thiadiazin-7-yl}-methanesulfonamide] |  |

Further lines, the compound ahead of its results:

| SMILES | melting point | IC50 (NS5B polymerase) | EC50 (HCV replicon) |
| --- | --- | --- | --- |
| O=C1C(C2=NS(=O)(=O)c3cnccc3N2)=C(O)[C@@H]2[C@H]3CC[C@H](C3)[C@@H]2N1Cc1ccc(F)cc1 [Example 64, (1R,2S,7R,8S)-5-(1,1-Dioxo-1,4-dihydro-1λ^6-pyrido[4,3-e][1,2,4]thiadiazin-3-yl)-3-(4-fluoro-benzyl)-6-hydroxy-3-aza-tricyclo[6.2.1.0^2,7]undec-5-en-4-one] |  |  | 100 to 1000 nM |
| O=C1C(C2=NS(=O)(=O)c3ncccc3N2)=C(O)[C@@H]2[C@H]3CC[C@H](C3)[C@@H]2N1Cc1ccc(F)cc1 [Example 65, (1R,2S,7R,8S)-5-(1,1-Dioxo-1,4-dihydro-1λ^6-pyrido[3,2-e][1,2,4]thiadiazin-3-yl)-3-(4-fluoro-benzyl)-6-hydroxy-3-aza-tricyclo[6.2.1.0^2,7]undec-5-en-4-one] |  |  | 100 to 1000 nM |
| O=C1C(C2=NS(=O)(=O)c3cc(NS(=O)(=O)c4ccccc4)ccc3N2)=C(O)[C@@H]2[C@H]3CC[C@H](C3)[C@@H]2N1Cc1ccc(F)cc1 [Example 41, N-{3-[(1R,2S,7R,8S)-3-(4-Fluoro-benzyl)-6-hydroxy-4-oxo-3-aza-tricyclo[6.2.1.0^2,7]undec-5-en-5-yl]-1,1-dioxo-1,4-dihydro-1λ^6-benzo[1,2,4]thiadiazin-7-yl}-benzenesulfonamide] |  | 20 to 100 nM |  |
